21 compounds from ChEMBL document CHEMBL1140679, “The identification of potent, selective, and bioavailable cathepsin S inhibitors” (Bioorg Med Chem Lett, 2007) can be followed below.

The structures appear in SMILES notation.

Data set [1] concerns the target Cathepsin S (Homo sapiens, UniProt P25774). Description: Inhibition of human cathepsin S.
The target in data set [2] is T1, Cathepsin K (Homo sapiens, UniProt P43235).
T1 sequence (P43235 whole entry): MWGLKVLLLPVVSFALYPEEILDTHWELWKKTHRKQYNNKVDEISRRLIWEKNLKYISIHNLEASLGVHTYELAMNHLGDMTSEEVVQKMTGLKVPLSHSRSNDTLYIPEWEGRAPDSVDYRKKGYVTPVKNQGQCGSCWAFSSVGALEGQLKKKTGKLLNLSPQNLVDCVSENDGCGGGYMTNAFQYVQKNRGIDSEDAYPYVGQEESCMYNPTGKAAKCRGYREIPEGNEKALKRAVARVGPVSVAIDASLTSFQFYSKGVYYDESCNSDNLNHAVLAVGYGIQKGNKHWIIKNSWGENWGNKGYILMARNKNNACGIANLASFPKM
Description: Inhibition of human cathepsin K.

For data set [3], the target named is Cathepsin B (Homo sapiens, UniProt P07858). Description: Inhibition of human cathepsin B.
Data set [4] has as its target Procathepsin L (Homo sapiens, UniProt P07711). Description: Inhibition of human cathepsin L.
In data set [5] the target is Cathepsin S (Mus musculus, UniProt O70370). The data set is described as follows: Inhibition of mouse recombinant cathepsin S.
Data set [6] deals with T2, Cathepsin K (Mus musculus, UniProt P55097).
T2 sequence (P55097 whole entry): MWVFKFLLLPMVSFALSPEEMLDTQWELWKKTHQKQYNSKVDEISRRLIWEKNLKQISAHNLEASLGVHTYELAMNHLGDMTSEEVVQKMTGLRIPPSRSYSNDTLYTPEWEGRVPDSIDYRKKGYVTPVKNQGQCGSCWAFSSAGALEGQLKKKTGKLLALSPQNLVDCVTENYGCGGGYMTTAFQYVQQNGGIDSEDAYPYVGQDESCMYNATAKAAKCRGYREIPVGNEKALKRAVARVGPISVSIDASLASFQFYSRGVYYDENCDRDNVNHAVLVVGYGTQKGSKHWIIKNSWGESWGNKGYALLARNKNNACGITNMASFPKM
Description: Inhibition of mouse recombinant cathepsin K.

Data set [7] addresses Cathepsin B (Mus musculus, UniProt P10605). Description: Inhibition of mouse recombinant cathepsin B.
Data set [8] has as its target Cathepsin S (Rattus norvegicus, UniProt Q02765). Description: Inhibition of rat spleen cathepsin S. It is filed as tissue-based.
Data set [9] deals with Cathepsin B (Rattus norvegicus, UniProt P00787). The data set is described as follows: Inhibition of rat liver lysosomal cathepsin B.
The target of data set [10] is T3, Procathepsin L (Mus musculus, UniProt P06797).
T3 sequence (P06797 whole entry): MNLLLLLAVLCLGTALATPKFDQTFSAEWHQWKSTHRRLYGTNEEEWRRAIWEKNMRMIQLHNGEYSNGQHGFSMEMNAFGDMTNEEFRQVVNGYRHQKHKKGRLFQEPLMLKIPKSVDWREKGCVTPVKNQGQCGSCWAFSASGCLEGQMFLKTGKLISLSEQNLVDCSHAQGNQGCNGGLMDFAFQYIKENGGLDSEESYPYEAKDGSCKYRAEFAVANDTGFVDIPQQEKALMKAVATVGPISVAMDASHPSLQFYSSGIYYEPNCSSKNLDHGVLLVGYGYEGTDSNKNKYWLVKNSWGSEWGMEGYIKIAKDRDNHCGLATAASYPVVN
The data set is described as follows: Inhibition of mouse recombinant cathepsin L.

For data set [11], the target named is T4, Procathepsin L (Rattus norvegicus, UniProt P07154).
T4 sequence (P07154 whole entry): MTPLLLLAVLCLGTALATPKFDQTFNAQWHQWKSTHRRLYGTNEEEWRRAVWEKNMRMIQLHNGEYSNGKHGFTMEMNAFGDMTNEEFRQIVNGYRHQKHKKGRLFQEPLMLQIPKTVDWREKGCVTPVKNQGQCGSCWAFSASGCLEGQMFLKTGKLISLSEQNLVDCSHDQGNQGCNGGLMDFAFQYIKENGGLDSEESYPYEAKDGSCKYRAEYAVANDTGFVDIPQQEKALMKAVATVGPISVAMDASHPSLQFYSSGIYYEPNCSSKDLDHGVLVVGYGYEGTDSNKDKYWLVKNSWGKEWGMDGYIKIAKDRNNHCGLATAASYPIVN
Description: Inhibition of rat liver lysosomal cathepsin L.

Data set [12] is described as follows: Inhibition of antigen presentation in mouse B cells. It is filed as functional, cell-based.
A short description of data set [13]: Bioavailability in Sprague-Dawley rat. It is filed as ADME, organism-based. Conditions: in vivo.
Data set [14] is described as follows: Cmax in Sprague-Dawley rat. The following applies: in vivo. It is filed as ADME, organism-based.
The nature of data set [15]: Half life in Sprague-Dawley rat. Conditions: in vivo. It is filed as ADME, organism-based.

Cathepsin B (Mus musculus, UniProt P10605), sequence (P10605 whole entry): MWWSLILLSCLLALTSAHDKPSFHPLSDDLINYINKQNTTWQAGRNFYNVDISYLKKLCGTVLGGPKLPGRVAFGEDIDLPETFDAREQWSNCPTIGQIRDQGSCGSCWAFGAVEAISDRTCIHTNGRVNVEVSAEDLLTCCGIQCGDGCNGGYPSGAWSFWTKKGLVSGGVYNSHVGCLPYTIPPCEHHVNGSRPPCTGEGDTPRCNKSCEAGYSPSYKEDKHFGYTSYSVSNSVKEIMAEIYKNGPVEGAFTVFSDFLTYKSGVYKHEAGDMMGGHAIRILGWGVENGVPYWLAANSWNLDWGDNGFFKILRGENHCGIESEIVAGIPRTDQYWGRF
Cathepsin B (Rattus norvegicus, UniProt P00787), sequence (P00787 whole entry): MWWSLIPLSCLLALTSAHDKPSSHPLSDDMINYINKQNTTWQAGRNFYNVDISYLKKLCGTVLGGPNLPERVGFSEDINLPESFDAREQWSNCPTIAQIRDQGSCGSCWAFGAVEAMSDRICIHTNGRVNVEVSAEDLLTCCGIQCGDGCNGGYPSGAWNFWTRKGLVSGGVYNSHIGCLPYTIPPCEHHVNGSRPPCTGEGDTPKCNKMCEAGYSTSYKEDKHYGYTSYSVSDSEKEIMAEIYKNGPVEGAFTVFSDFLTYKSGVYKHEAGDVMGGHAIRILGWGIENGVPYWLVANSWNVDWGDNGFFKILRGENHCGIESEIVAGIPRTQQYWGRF
Cathepsin S (Mus musculus, UniProt O70370), sequence (O70370 whole entry): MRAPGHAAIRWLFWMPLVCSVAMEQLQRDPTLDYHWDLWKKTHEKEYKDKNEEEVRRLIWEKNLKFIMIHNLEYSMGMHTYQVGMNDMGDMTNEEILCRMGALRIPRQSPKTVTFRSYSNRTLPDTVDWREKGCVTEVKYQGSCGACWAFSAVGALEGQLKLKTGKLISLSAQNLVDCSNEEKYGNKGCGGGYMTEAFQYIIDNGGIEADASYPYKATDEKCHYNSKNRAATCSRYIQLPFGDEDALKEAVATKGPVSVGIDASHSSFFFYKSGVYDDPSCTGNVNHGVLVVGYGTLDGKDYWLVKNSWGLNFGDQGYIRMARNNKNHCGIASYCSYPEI
Procathepsin L (Homo sapiens, UniProt P07711), sequence (P07711 whole entry): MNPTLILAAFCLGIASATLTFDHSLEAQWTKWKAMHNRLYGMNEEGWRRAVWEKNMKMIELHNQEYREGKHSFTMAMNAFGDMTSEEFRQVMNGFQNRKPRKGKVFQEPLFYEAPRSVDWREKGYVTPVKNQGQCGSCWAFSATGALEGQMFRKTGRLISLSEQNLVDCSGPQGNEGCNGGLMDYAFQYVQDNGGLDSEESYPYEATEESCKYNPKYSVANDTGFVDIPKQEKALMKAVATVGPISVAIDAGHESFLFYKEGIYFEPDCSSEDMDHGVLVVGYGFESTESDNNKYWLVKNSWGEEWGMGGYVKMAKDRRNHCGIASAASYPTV
Cathepsin S (Rattus norvegicus, UniProt Q02765), sequence (Q02765 whole entry): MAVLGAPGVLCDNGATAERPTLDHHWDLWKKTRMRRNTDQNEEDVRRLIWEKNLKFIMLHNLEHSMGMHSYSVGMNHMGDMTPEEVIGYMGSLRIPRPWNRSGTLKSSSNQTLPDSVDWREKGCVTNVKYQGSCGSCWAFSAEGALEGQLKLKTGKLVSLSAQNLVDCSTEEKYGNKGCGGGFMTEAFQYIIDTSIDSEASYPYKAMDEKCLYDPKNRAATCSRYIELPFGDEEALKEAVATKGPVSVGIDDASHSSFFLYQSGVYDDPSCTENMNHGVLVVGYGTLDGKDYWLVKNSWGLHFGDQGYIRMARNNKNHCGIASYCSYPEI
Cathepsin S (Homo sapiens, UniProt P25774), sequence (P25774 whole entry): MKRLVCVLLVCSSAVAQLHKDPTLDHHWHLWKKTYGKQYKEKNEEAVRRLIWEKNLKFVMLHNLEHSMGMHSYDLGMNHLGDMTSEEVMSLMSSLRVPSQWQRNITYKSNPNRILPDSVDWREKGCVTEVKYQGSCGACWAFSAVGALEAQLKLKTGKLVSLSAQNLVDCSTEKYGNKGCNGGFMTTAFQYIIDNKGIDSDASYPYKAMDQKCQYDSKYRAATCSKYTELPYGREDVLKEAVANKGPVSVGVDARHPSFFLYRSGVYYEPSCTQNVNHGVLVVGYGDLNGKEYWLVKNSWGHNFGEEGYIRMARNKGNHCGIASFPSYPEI

Take `N#CC1(NC(=O)[C@H](CS(=O)(=O)c2cccc(Br)c2)N[C@@H](c2ccccc2)C(F)(F)F)CC1`: the IC50 – broadly, the concentration needed to halve the response being measured – is 0.2 nM at Cathepsin S [1]; 269 nM at Cathepsin K [2]; 6630 nM on Cathepsin B [3]; 23 nM on Procathepsin L [4]; below 0.2 nM at Cathepsin S [5]; 2550 nM on Cathepsin K [6]. Moreover, the IC50 was determined as 4010 nM at Cathepsin B [7]; 44 nM on Cathepsin S [8]; 4700 nM against Cathepsin B [9]; 90 nM at Procathepsin L [10]; 132 nM against Procathepsin L [11].

As to `N#CC1(NC(=O)[C@H](CS(=O)(=O)Cc2ccccc2-c2ccccc2)N[C@@H](c2ccc(F)cc2)C(F)(F)F)CC1`, the IC50 at Cathepsin S [1] is 1.8 nM; against Cathepsin K [2] it was above 10000 nM; on Cathepsin B [3], 4040 nM; at Procathepsin L [4], above 10000 nM.

For the compound `CS(=O)(=O)C[C@H](N[C@@H](c1ccccc1)C(F)(F)F)C(=O)NC1(C#N)CC1`, the IC50 against Cathepsin S [1] is 2.5 nM; against Cathepsin K [2] it was 141 nM; at Cathepsin B [3], 1980 nM; at Procathepsin L [4], 1040 nM.

In the case of `N#CC1(NC(=O)[C@H](CS(=O)(=O)Cc2cccc(F)c2F)N[C@@H](c2ccccc2)C(F)(F)F)CC1`, the IC50 at Cathepsin S [1] is 0.3 nM; at Cathepsin K [2], above 10000 nM; against Cathepsin B [3] it was 1840 nM; on Procathepsin L [4], 105 nM.

As to `N#CC1(NC(=O)[C@H](CS(=O)(=O)c2nc3ccccc3s2)N[C@@H](c2ccccc2)C(F)(F)F)CC1`, the IC50 at Cathepsin S [1] came to 1.3 nM; against Cathepsin K [2], 825 nM; at Cathepsin B [3], 2970 nM; against Procathepsin L [4], 114 nM.

Turning to `CC(C)C[C@@H](NC(=O)N1CCOCC1)C(=O)N[C@@H](/C=C/S(=O)(=O)c1ccccc1)CCc1ccccc1`, the IC50 was 1.2 nM on Cathepsin S [1]; 6.2 nM at Cathepsin K [2]; 4500 nM at Cathepsin B [3]; 0.5 nM on Cathepsin S [5]; 388 nM at Cathepsin K [6]; 1280 nM on Cathepsin B [7]. Moreover, the IC50 at Cathepsin S [8] is 1.7 nM; at Cathepsin B [9] it was 735 nM; against Procathepsin L [11], 4.1 nM; in [12], 1.2 nM.

On to `CC(C)CS(=O)(=O)C[C@H](N[C@@H](c1ccc(F)cc1)C(F)(F)F)C(=O)NC1(C#N)CC1`, for which the IC50 on Cathepsin S [1] worked out at 0.4 nM; on Cathepsin K [2], 3060 nM; against Cathepsin B [3], 337 nM; against Procathepsin L [4], 132 nM. In data set [13], the bioavailability (in general, dose-corrected exposure relative to a reference, in per cent) worked out at 5%. The Cmax (as a rule, the maximum level reached in the sampled fluid or tissue) in data set [14] is 140 nM. Moreover, in [15], the half-life (usually how long it takes for the measured level to halve) was 1.6 h.

In the case of `C[S+]([O-])C[C@H](N[C@@H](c1ccc(Br)cc1)C(F)(F)F)C(=O)NC1(C#N)CC1` (some centres not stated), the IC50 was 2170 nM against Cathepsin S [1], 639 nM at Cathepsin K [2], 8030 nM on Cathepsin B [3] and above 10000 nM at Procathepsin L [4].

For the compound `N#CC1(NC(=O)[C@H](CS(=O)(=O)Cc2ccc(F)cc2)N[C@@H](c2ccccc2)C(F)(F)F)CC1`, the IC50 against Cathepsin S [1] was 0.5 nM; against Cathepsin K [2], above 10000 nM; on Cathepsin B [3], 2780 nM; against Procathepsin L [4], 86 nM.

As for `CS(=O)(=O)C[C@H](N[C@@H](c1ccc(-c2ccc(F)cc2)cc1)C(F)(F)F)C(=O)NC1(C#N)CC1`, the half-inhibitory concentration (IC50) against Cathepsin S [1] was 10 nM; at Cathepsin K [2], 5.3 nM; on Cathepsin B [3], 170 nM; against Procathepsin L [4], above 10000 nM.

Take `CSC[C@H](N[C@@H](c1ccc(Br)cc1)C(F)(F)F)C(=O)NC1(C#N)CC1`: the IC50 at Cathepsin S [1] stood at 80 nM; on Cathepsin K [2], 5 nM; against Cathepsin B [3], 417 nM; on Procathepsin L [4], 456 nM.

As to `N#CC1(NC(=O)[C@H](CS(=O)(=O)c2ccc(Br)cc2)N[C@@H](c2ccccc2)C(F)(F)F)CC1`, the IC50 was 0.3 nM on Cathepsin S [1]; 290 nM against Cathepsin K [2]; 3450 nM at Cathepsin B [3]; 15 nM at Procathepsin L [4]; 0.2 nM at Cathepsin S [5]; 1320 nM on Cathepsin K [6]. The half-maximal inhibitory concentration (IC50) on Cathepsin B [7] worked out at 1750 nM; against Cathepsin S [8], 66 nM; on Cathepsin B [9], 1810 nM; at Procathepsin L [10], 39 nM; at Procathepsin L [11], 72 nM.

For `CC(C)(c1ccc(F)cc1)S(=O)(=O)C[C@H](N[C@@H](c1ccc(F)cc1)C(F)(F)F)C(=O)NC1(C#N)CC1`, the concentration for half-maximal inhibition (IC50) against Cathepsin S [1] was 627 nM; against Cathepsin K [2], above 10000 nM; at Cathepsin B [3], above 10000 nM; against Procathepsin L [4], above 10000 nM.

As to `N#CC1(NC(=O)[C@H](CS(=O)(=O)Cc2cccc(F)c2F)N[C@@H](c2ccc(F)cc2)C(F)(F)F)CC1`, the IC50 against Cathepsin S [1] was 0.3 nM; against Cathepsin K [2], above 10000 nM; at Cathepsin B [3], 1320 nM; against Procathepsin L [4] it was 121 nM; at Cathepsin S [5], 0.8 nM; at Cathepsin K [6], above 10000 nM. Also, the IC50 was 384 nM on Cathepsin B [7]; 21 nM on Cathepsin S [8]; 384 nM against Cathepsin B [9]; 662 nM on Procathepsin L [10]; 399 nM on Procathepsin L [11]. This compound also came in with a bioavailability in data set [13] of 3%. The compound further registered a Cmax in [14] of 46 nM. In [15], this compound gave a half-life of 1.2 h.

Regarding `CC(C)C[C@H](N[C@@H](c1ccc(-c2ccc(S(C)(=O)=O)cc2)cc1)C(F)(F)F)C(=O)NC1(C#N)CC1`, the IC50 came to 265 nM against Cathepsin S [1], 0.3 nM at Cathepsin K [2], 7740 nM against Cathepsin B [3] and 456 nM against Procathepsin L [4].

For the compound `N#CC1(NC(=O)[C@H](CS(=O)(=O)c2nccs2)N[C@@H](c2ccccc2)C(F)(F)F)CC1`, the IC50 turned out to be 5 nM at Cathepsin S [1], 376 nM at Cathepsin K [2], 3610 nM at Cathepsin B [3] and 181 nM against Procathepsin L [4].

For the compound `N#CC1(NC(=O)[C@H](CS(=O)(=O)CC2CC2)N[C@@H](c2ccc(F)cc2)C(F)(F)F)CC1`, the IC50 is 0.5 nM at Cathepsin S [1]; 2000 nM at Cathepsin K [2]; 1000 nM at Cathepsin B [3]; 188 nM against Procathepsin L [4]; 0.9 nM on Cathepsin S [5]; above 10000 nM on Cathepsin K [6]. The IC50 on Cathepsin B [7] was found to be 253 nM; against Cathepsin S [8] it was 759 nM; on Cathepsin B [9], 272 nM; at Procathepsin L [10], 332 nM; at Procathepsin L [11], 738 nM. Besides, the bioavailability in data set [13] was 40%. This compound also returned a Cmax in data set [14] of 2800 nM. For the same compound, the half-life in data set [15] was 3.8 h.

As for `N#CC1(NC(=O)[C@H](CS(=O)(=O)Cc2c(F)cccc2F)N[C@@H](c2ccc(F)cc2)C(F)(F)F)CC1`, the IC50 against Cathepsin S [1] is 0.7 nM; against Cathepsin K [2], above 10000 nM; at Cathepsin B [3], above 10000 nM; against Procathepsin L [4], 249 nM.

Regarding `N#CC1(NC(=O)[C@H](CS(=O)(=O)c2ccc(F)cc2)N[C@@H](c2ccc(F)cc2)C(F)(F)F)CC1`, the IC50 was 0.4 nM at Cathepsin S [1], 305 nM against Cathepsin K [2], 7280 nM at Cathepsin B [3] and 22 nM against Procathepsin L [4].

With `N#CC1(NC(=O)[C@H](CS(=O)(=O)CC2CC2)N[C@@H](c2ccccc2)C(F)(F)F)CC1`, the IC50 at Cathepsin S [1] was 0.6 nM; on Cathepsin K [2] it was 555 nM; at Cathepsin B [3], 287 nM; against Procathepsin L [4], 68 nM.

Consider `CS(=O)(=O)C[C@H](N[C@@H](c1cccc(F)c1)C(F)(F)F)C(=O)NC1(C#N)CC1`, for which the IC50 worked out at 6.4 nM against Cathepsin S [1], 314 nM against Cathepsin K [2], 3850 nM against Cathepsin B [3] and 911 nM on Procathepsin L [4].
